# Source: publication PMC7156724, “Potent BRD4 inhibitor suppresses cancer cell-macrophage interaction” (Nature Communications, 2020)
# “And” between values parts separate entries of the source, which are not always exact repeats. Identical values can stand only once.
# Assays:
# MDA-MB231 cells = experiment: Clonogenic (colony formation) assay, MDA-MB231; format: cell-based, human; details: MDA-MB231, 250 nM, 5 days
# Description: Fig. 2 NHWD-870 inhibited BRD4 phosphorylation and c-MYC expression, and suppressed cell growth. a Representative western blot analysis of p-BRD4 (s484/488), BRD4, c-MYC, and GAPDH after treatment of MDA-MB231, SUM159, A2780 ES-2, and H526 cells with JQ-1 or NHWD-870 at the indicated concentrations for 24 h. GAPDH served as the loading control. Selected from three independent experiments. b MTT assays of H526, A2780, ES-2, and MDA-MB231 cells treated with JQ-1 or NHWD-870 at the indicated concentrations for 5 days. Data are presented as mean ± SEM from three independent experiments. c, d Clonogenic assays of H526, A2780, ES-2 and MDA-MB231 cells treated with 250 nM JQ-1 or NHWD-870 for 5 days. Shown are representative images (c) and quantification of colonies (d). […] Shown are representative images (e) and quantification of relative colony sizes (f). Scale bar, 50 μm. Data are presented as mean ± SEM from five independent experiments. p values were calculated using two-tailed, unpaired t tests in this figure. **p < 0.01; ***p < 0.001. Source data are provided as a Source Data file. […]
# 5. Colony formation assay. Cells were seeded in 6-well plates at 3,000 cells/well […]
# every week. […] Colony numbers were calculated with imageJ version
# [1] = test system: A2780 tumor cells and TAMs; experiment: Direct co-culture of pretreated A2780 cells with TAMs, Ki67/CD68 staining; format: cell-based, mouse
# Description: A2780 tumor cells were pretreated with 100 nM NHWD-870 and then directly co-cultured with TAMs (A2780:TAMs ratio as 4:1) at the density of 1 × 10^5 total cells in a 12-well. Shown are immunofluorescent staining of Ki67 and CD68 (a) and quantification of Ki67+ and CD68− or CD68+ cells (b). Scale bar is 50 μm. […] A2780 cells (pre-treated with or without 100 nM NHWD-870 for 48 h) were seeded into the top chamber (transwell size: 0.4 μm) and TAMs (Mac, 40,000 cells per 24-well) in medium containing 2% matrigel were seeded into the bottom chamber pre-coated with Matrigel. No NHWD-870 was added to the co-culture. The upper chamber without A2780 cells was used as a control. Shown are schematics of transwell co-culture experiment (c), representative pictures of TAM spheroid (d: black/white), and quantification of spheroid volumes (e). Scale bar is 50 μm. […] Data are presented as mean ± SEM from three independent experiments. g CSF1 protein levels in supernatant of 10^6 ID8, B16, A2780, SKOV3, and A375 cells treated with DMSO or 25 nM NHWD-870 for 24 h, as measured by ELISA. […] Scale bar is 20 μm. i Quantification of CSF1 staining in DMSO or 100 nM NHWD-870 treated A2780 cells. […] Shown are representative immunofluorescent staining of CSF1 (green) and CD68 (red) (j) and quantification of CSF1 staining (k). […]
structure (smiles),measurement,setting,value
Cc1nnn(C)c1-c1cnc2c3c4cnn(C)c4ccc3n([C@H](c3ccccc3)C3CCOCC3)c2c1 [NHWD-870],Clone Number (clonogenic assay),MDA-MB231 cells,571 and 603 and 635 and 542 and 519
same,quantification of Ki67+ and CD68+ cells,"[1]; A2780 pretreated with 100 nM, direct co-culture with TAMs",0
same,inhibition at 0.1 µM,"[1]; pre-treatment of A2780 cells with 100 nM, read-out: inhibition of the proliferation rate of TAMs",83%
